Our source for the IC50 and Ki values is patent US8642612B2, “Nicotinic desensitizers and methods of selecting, testing, and using them” (Potomac Pharmaceuticals, Inc., priority 2006, dated 2014).

For assay [1], the target named is T1, rat α3β4 nAChRs (Rattus norvegicus, UniProt P04757+P12392).
T1 construct: expressed in transfected cells; the efflux text says only stably transfected cells
The experiment in a line: Inhibition of nicotine-stimulated 86Rb+ efflux, cells expressing rat α3β4 nAChRs. Particulars: mean ± SEM of 3 to 7 experiments. The class given is cell-based. The procedure: In brief, cells were plated into 24-well plates coated with poly-D-lysine. […] The cells were then incubated in growth medium (0.5 ml/well) containing ^86Rb^+ (2 μCi/ml) for 4 hour at 37° C. The loading mixture was then aspirated, and the cells were washed four times with 1 ml buffer (15 mM HEPES, 140 mM NaCl, 2 mM KCl, 1 mM MgSO4, 1.8 mM CaCl2, 11 mM Glucose, pH 7.4). One ml of buffer with or without compounds to be tested was then added to each well. After incubation for 2 min, the assay buffer was collected for measurements of ^86Rb^+ released from the cells. Cells were then lysed by adding 1 ml of 100 mM NaOH to each well, and the lysate was collected for determination of the amount of ^86Rb^+ that was in the cells at the end of the efflux assay. Radioactivity of assay samples and lysates was measured by liquid scintillation counting. Total loading (cpm) was calculated as the sum of the assay sample and the lysate of each well. The amount of ^86Rb^+ efflux was expressed as a percentage of […] loaded. […] IC50 values were determined by nonlinear least-squares regression analyses (GraphPad, San Diego, Calif.).

A further assay addresses T2, rat α4β2 nAChRs (Rattus norvegicus, UniProt P09483+P12390).
T2 construct: expressed in transfected cells; host or cells: HEK cells (membrane homogenates)
The settings on record: 100 pM [3H]EB; published previously (Xiao and Kellar, 2004); cited from earlier work.

Assay [2] addresses native nAChRs from rat forebrain (Rattus norvegicus, UniProt P09483+P12390). The settings on record: read-out: Ki Forebrain (rat); 100 pM [3H]EB; published previously (Xiao and Kellar, 2004); cited from earlier work.
The target in assay [3] is T1, rat α3β4 nAChRs. The settings on record: 100 pM [3H]EB; published previously (Xiao and Kellar, 2004); cited from earlier work.

Like-named read-outs stand apart in the source and are kept apart here.

T1 sequence (P04757 26-499): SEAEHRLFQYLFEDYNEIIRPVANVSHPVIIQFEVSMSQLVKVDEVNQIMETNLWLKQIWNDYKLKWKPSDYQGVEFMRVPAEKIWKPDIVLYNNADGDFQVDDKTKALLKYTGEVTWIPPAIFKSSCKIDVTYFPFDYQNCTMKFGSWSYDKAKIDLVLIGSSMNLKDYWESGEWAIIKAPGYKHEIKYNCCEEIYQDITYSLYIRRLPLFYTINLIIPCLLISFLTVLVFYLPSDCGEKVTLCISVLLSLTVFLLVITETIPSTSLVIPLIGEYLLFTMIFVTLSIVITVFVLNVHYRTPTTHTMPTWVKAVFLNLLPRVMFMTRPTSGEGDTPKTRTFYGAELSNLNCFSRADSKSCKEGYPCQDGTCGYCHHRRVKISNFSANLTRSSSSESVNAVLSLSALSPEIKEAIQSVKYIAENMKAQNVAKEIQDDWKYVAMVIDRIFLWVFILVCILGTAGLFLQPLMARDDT
T1 sequence (P12392 21-495): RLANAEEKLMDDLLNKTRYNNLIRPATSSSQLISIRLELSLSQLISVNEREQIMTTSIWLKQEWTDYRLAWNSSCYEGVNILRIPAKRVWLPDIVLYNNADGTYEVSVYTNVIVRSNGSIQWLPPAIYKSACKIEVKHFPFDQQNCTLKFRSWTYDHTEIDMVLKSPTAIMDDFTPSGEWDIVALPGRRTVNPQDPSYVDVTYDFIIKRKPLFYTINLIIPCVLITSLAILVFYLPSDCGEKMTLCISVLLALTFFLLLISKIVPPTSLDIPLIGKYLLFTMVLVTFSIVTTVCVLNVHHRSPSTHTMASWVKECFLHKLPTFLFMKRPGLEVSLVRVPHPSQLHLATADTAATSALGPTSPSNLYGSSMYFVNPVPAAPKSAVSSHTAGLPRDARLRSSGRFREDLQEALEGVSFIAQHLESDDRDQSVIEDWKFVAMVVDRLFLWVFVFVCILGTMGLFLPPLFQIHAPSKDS
T2 sequence (P09483 31-630): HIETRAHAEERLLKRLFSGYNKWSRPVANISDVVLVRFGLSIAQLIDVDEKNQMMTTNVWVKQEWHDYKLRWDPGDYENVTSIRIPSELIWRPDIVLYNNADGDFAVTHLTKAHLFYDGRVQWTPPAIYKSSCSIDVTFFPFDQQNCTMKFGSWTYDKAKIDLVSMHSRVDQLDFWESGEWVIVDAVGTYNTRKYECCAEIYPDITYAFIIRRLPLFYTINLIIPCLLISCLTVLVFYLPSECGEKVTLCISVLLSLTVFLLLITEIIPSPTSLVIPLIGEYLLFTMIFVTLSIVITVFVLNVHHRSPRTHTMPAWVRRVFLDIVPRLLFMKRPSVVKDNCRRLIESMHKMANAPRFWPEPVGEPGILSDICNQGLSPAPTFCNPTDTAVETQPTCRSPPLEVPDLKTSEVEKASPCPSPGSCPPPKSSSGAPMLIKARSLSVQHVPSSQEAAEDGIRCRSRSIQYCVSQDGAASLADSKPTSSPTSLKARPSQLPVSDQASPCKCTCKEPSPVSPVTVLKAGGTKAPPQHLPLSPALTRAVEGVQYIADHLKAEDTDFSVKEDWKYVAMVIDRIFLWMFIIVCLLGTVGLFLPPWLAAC
T2 sequence (P12390 25-500): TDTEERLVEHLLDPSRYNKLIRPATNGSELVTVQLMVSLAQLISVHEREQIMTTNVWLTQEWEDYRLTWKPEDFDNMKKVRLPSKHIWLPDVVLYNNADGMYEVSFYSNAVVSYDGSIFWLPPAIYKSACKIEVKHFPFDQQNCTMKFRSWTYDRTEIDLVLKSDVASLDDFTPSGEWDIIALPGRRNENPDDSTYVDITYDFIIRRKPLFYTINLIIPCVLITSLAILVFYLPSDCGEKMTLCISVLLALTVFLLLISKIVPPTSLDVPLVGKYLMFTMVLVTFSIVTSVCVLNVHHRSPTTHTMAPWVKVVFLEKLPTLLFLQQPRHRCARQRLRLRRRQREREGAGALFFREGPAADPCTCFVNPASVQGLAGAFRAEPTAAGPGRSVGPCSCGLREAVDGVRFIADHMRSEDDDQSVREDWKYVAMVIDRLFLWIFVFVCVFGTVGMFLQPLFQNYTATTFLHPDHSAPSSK
Chain of native nAChRs from rat forebrain (P09483 31-630): as the sequence (P09483 31-630) above
Chain of native nAChRs from rat forebrain (P12390 25-500): as the sequence (P12390 25-500) above

For `CO[C@H]1CC=C2CCN3CCC4=C(CC(=O)OC4)[C@]23C1` [DHβE, dihydro-β-erythroidine], the IC50 was 160 µM at rat α3β4 nAChRs [1] (added simultaneously with 100 μM nicotine, read-out: IC50 α3β4 nAChRs, 0 min Pretreatment) and 130 µM at rat α3β4 nAChRs [1] (read-out: IC50 α3β4 nAChRs, 10 min Pretreatment, 10 min preincubation, then 100 μM nicotine). For the same compound, the Ki is 0.6 ± 0.07 µM at rat α4β2 nAChRs, 0.13 ± 0.05 µM in assay [2] and 110 µM at rat α3β4 nAChRs [3].
